Holding throughout (assay type): in vivo
For test [1], the system named is STING. The test can be described thus: STING mRNA expression in kidneys of young and old mice (Example 1). The conditions noted are these: kidneys of 21-month-old mice; 25 mg/kg body weight/day intraperitoneally for eight weeks; FIG. 1A. On the procedure: (§1) FIGS. 1A-1B show mRNA expression of STING (FIG. 1A) and cyclic guanosine monophosphate-adenosine monophosphate (cyclic GMP-AMP) synthase (cGAS) (FIG. 1B) in the kidneys of 4-month old (“young”) and 21-month-old (“old”) mice, in which a cohort of mice were administered a pan estrogen-related receptor (ERR) agonist, as described in Example 1.
(§2) A study was conducted to evaluate STING and cGAS under inflammatory conditions.
(§3) In one aspect of the study, mRNA expression and protein levels of STING and cGAS were assessed in kidneys of mice that are 4 months old (young) and kidneys of mice that are 21 months old (aged and marked by inflammation).
(§4) In a second aspect of the study, 4-month-old mice and 21-month-old mice were treated with a pan ERR agonist, SLU-PP-332 (25 mg/kg body weight/day, administered intraperitoneally, for eight weeks).

Test [2] relates to cGAS. Description: cGAS mRNA expression in kidneys of young and old mice (Example 1). The conditions noted are these: kidneys of 21-month-old mice; 25 mg/kg body weight/day intraperitoneally for eight weeks; FIG. 1B. On the procedure:
as §1, §2, §3, §4

Test [3] concerns STING. The test can be described thus: STING protein levels (immunoblot) in kidneys of young and old mice (Example 1). The settings on record: kidneys of 21-month-old mice; 25 mg/kg body weight/day intraperitoneally for eight weeks; FIGS. 2A and 2B. On the procedure:
(§5) FIGS. 2A-2D show STING protein levels presented as an immunoblot (FIG. 2A) and quantified (FIG. 2B), and cGAS protein levels presented as an immunoblot (FIG. 2C) and quantified (FIG. 2D), in the kidneys of 4-month old (“young”) and 21-month-old (“old”) mice, in which a cohort of mice were administered a pan ERR agonist, as described in Example 1.
as §2, §3, §4
Background: Immunoblotting shows a protein as a band on a membrane.

The test system of test [4] is cGAS. The test can be described thus: cGAS protein levels (immunoblot) in kidneys of young and old mice (Example 1). The conditions noted are these: kidneys of 21-month-old mice; 25 mg/kg body weight/day intraperitoneally for eight weeks; FIGS. 2C and 2D. The protocol:
as §5, §2, §3, §4

Test [5] concerns PGC-1α. Description: PGC-1α mRNA expression in kidneys of old mice (Example 2). The settings on record: kidneys of 21-month-old mice; 1 mg/kg body weight/day intraperitoneally for three weeks; FIG. 3A. On the procedure:
(§6) FIGS. 3A-3F show mRNA expression of peroxisome proliferator-activated receptor-gamma coactivator (PGC)-1α (PGC-1α) (FIG. 3A), PGC-1β (FIG. 3B), ERR-alpha (ERRα) (FIG. 3C), p21 (FIG. 3D), interleukin (IL)-1β (FIG. 3E), and signal transducer and activator of transcription 3 (Stat3) (FIG. 3F) in the kidneys of 4-month old (“young”) and 21-month-old (“old”) mice, in which a cohort of old mice were administered a STING inhibitor (“SI”), C-176, as described in Example 2.
(§7) A study was conducted to evaluate expression levels of various markers and cytokines under inflammatory conditions, and the impact of administering a STING inhibitor on expression and protein levels.
(§8) In one aspect of the study, mRNA expression levels of PGC-1α, PGC-1β, ERRα, p21, IL-1β, and Stat3 were examined in kidneys of mice that are 4 months old (young) and kidneys of mice that are 21 months old (aged and marked by inflammation).
(§9) In a second aspect of the study, an inhibitor of STING, C-176, was administered (1 mg/kg body weight/day, administered intraperitoneally, for three weeks) to the 21-month-old mice.

A further test has as its system PGC-1β. Description: PGC-1β mRNA expression in kidneys of old mice (Example 2). The conditions noted are these: kidneys of 21-month-old mice; 1 mg/kg body weight/day intraperitoneally for three weeks; FIG. 3B. The protocol: as §6, §7, §8, §9
A further test concerns ERRα. Description: ERRα mRNA expression in kidneys of old mice (Example 2). The settings on record: kidneys of 21-month-old mice; 1 mg/kg body weight/day intraperitoneally for three weeks; FIG. 3C. On the procedure: as §6, §7, §8, §9
The next test has as its system p21. The test can be described thus: p21 mRNA expression in kidneys of old mice (Example 2). The conditions noted are these: kidneys of 21-month-old mice; 1 mg/kg body weight/day intraperitoneally for three weeks; FIG. 3D. On the procedure: as §6, §7, §8, §9
For test [6], the system named is IL-1β. The test can be described thus: IL-1β mRNA expression in kidneys of old mice (Example 2). The conditions noted are these: kidneys of 21-month-old mice; 1 mg/kg body weight/day intraperitoneally for three weeks; FIG. 3E. The protocol: as §6, §7, §8, §9
Test [7] has as its system Stat3. The test can be described thus: Stat3 mRNA expression in kidneys of old mice (Example 2). The conditions noted are these: kidneys of 21-month-old mice; 1 mg/kg body weight/day intraperitoneally for three weeks; FIG. 3F. On the procedure:
as §6, §7, §8, §9

The subject of test [8] is PGC-1α. The test can be described thus: PGC-1α protein levels (immunoblot) in kidneys of old mice (Example 2). The settings on record: kidneys of 21-month-old mice; 1 mg/kg body weight/day intraperitoneally for three weeks; FIGS. 4A and 4B. The protocol:
(§10) FIGS. 4A-4D show PGC-1α protein levels presented as an immunoblot (FIG. 4A) and quantified (FIG. 4B), and p-Stat3 protein levels presented as an immunoblot (FIG. 4C) and quantified (FIG. 4D), in the kidneys of 4-month old (“young”) and 21-month-old (“old”) mice, in which a cohort of the old mice were administered a STING inhibitor (“SI”), C-176, as described in Example 2.
as §7, §9

For test [9], the system named is Stat3. The test can be described thus: Stat3 protein levels (immunoblot) in kidneys of old mice (Example 2). The conditions noted are these: kidneys of 21-month-old mice; 1 mg/kg body weight/day intraperitoneally for three weeks; FIGS. 4C and 4D. The protocol:
as §10, §7, §9

Test [10] has as its system IL-1β. Description: IL-1β mRNA expression in kidneys of db/db mice (Example 3). The conditions noted are these: kidneys of 4-month-old db/db mice; 1 mg/kg body weight/day intraperitoneally for eight weeks; FIG. 5. The protocol: (§11) A study was conducted to evaluate mRNA expression and protein levels of various markers and cytokines in kidneys of 4-month-old db/db mice, which is a model of type 2 diabetes due to a deficiency in leptin receptor activity, and in 4-month-old db/m mice, which are nondiabetic controls; and the effects of administering STING inhibitor C-176 (1 mg/kg body weight/day, administered intraperitoneally, for eight weeks) to these mice.

Another test relates to p-Stat3. The test can be described thus: p-Stat3 protein levels in kidneys of db/db mice (Example 3). The settings on record: kidneys of 4-month-old db/db mice; 1 mg/kg body weight/day intraperitoneally for eight weeks; FIGS. 6A and 6B. The protocol: (§12) FIGS. 6A-6C show p-Stat3 protein levels presented as an immunoblot (FIG. 6A) and quantified (FIG. 6B), and protein levels of phospho-interferon regulatory factor (p-IRF) (FIG. 6C) in the kidneys of […] diabetic mice (“db/db”) and non-diabetic mice (“db/m”) mice, in which a cohort of the mice were administered STING inhibitor C-176, as described in Example 3.
as §11

A further test concerns p-IRF3. Description: p-IRF3 protein levels in kidneys of db/db mice (Example 3). The settings on record: kidneys of 4-month-old db/db mice; 1 mg/kg body weight/day intraperitoneally for eight weeks; FIG. 6C. The protocol: as §12, §11
Test [11] deals with inflammation in the kidneys of diabetic mice. Description: Inflammation in the kidneys of diabetic mice (Example 3). The settings on record: db/db mice; 1 mg/kg body weight/day intraperitoneally for eight weeks. On the procedure:
as §11

`O=C(N/N=C/c1ccc2ccccc2c1)c1ccc(O)cc1` [SLU-PP-332]: the “mRNA expression of STING” value in the test with STING [1] is “significantly reversed the increase”. For the same compound, the “mRNA expression of cGAS” value in the test on cGAS [2] is given as “significantly reversed the increase”. In the test with STING [3], the “protein levels of STING” value was “significantly reversed the increase”. Moreover, the “protein levels of cGAS” value in the test on cGAS [4] is reported as “significantly reversed the increase”.

As to `O=C(Nc1ccc(I)cc1)c1ccc([N+](=O)[O-])o1` [C-176, N-(4-iodophenyl)-5-nitro-2-furancarboxamide], in the test with PGC-1α [5], the “mRNA expression of PGC-1α” value is “reversed the decrease”. In addition, the “mRNA expression of PGC-1β” value in the test on PGC-1β is “reversed the decrease”. Moreover, the “mRNA expression of ERRα” value in the test on ERRα is “reversed the decrease”. Besides, the “mRNA expression of p21” value in the test on p21 is reported as “reversed the increase”. Further, the “mRNA expression of IL-1β” value in the test on IL-1β [6] is on record as “reversed the increase”. In addition, in the test on Stat3 [7], the “mRNA expression of Stat3” value is reported as “reversed the increase”. The “protein levels of PGC-1α” value in the test on PGC-1α [8] is reported as “reversed the decrease”. Also, in the test on Stat3 [9], the “protein levels of Stat3” value is “reversed the increase”. Also, in the test on IL-1β [10], the “mRNA expression of IL-1β (activation of IL-1β)” value was “reversed the activation”. Moreover, in the test on p-Stat3, the p-Stat3 levels result is reported as “reversed the increase”. In addition, the p-IRF3 levels result in the test with p-IRF3 is “reversed the increase”. Moreover, in [11], the “inflammation in the kidneys of diabetic mice” value is “decreases inflammation”.

The record behind these values is patent publication US20230201187A1, “USE OF NAD+ PRECURSORS, STING INHIBITORS, AND FXR AGONISTS FOR INHIBITING SARS-COV-2 (COVID-19)-INDUCED CYTOKINE RELEASE” (Georgetown University, priority 2020, published 2023).
